Where a name gives a salt, the structure may show the parent alone.
Columns and labels:
[1] = Saturation concentration of bupivacaine hydrochloride in de-ionized water; type: physicochemical
Description: Bupivacaine hydrochloride (Sigma-Aldrich Corporation, St. Louis, Mo.) was dissolved in de-ionized (DI) water at a concentration of 40 mg/ml (saturation). A calculated amount of sodium hydroxide (in the form of 1 N solution) was added to the solution and the pH of the final mixtures was adjusted to ten to precipitate the Bupivacaine base. The precipitated product was filtered, and further washed with DI water for at least three times. The precipitated product was dried at ca. 40° C. in vacuum for 24 hours.

[2] = cited from earlier work

| concentration in de-ionized (DI) water (saturation) [1] | SMILES | reported solubility in water [2] |
| --- | --- | --- |
| 40000 µg/mL | CCCCN1CCCCC1C(=O)Nc1c(C)cccc1C (centres unmarked) [Bupivacaine hydrochloride] |  |
|  | CC(=O)OCC(COC(C)=O)OC(C)=O [triacetin] | 7.17 grams in 100 ml of water |
